In patent US6461613B2, “Methods and compositions for the selective regulation of chorionic prostanoids” (priority 1993, dated 2002):
Each block holds one molecule with its values, some of them ahead of it.

Columns and labels:
Format in all cases: cell-based
[1] = tested on: human term placenta; assay: Effect of enzyme inhibitors on prostanoid release from perifused human term placental explants (RIA); conditions: quinacrine 10 μM; for effect on PGFM release vs control / effect on TxB2 release vs control: EDTA 1 mM in perifusion medium; for effect on 6-keto-PGF1α release vs control / effect on PGE release vs control: EDTA 1 mM, NDGA 10 μM in perifusion medium
Experimental: Radioimmunoassays were performed in a fashion similar to what has been previously described (Siler-Khodr et al., 1986, Biol. Reprod., 35:312) which is specifically incorporated herein for this purpose, with specific exception as noted below. A perifusion model (described in Examples 2 and 3) was employed to determine placental cell response. Media collected from the perifusion samples prepared from placental tissues were assayed. […] All the samples from a given perifusion (placenta) were determined in the same assay. At the beginning of the fifth hour of the perifusion, Medium 199 in the experimental chambers was changed to Medium 199 containing quinacrine (10 μM), EDTA (1 mM), NDGA (10 μM) or indomethacin (50 μg/ml). Four replicated chambers were perifused with control medium and each of the experimental media. This experimental design was repeated in three different perifusions using placental tissues from three different patients according to the procedure described in Example 3. […] Term placentas were obtained and placed on ice immediately after vaginal delivery from patients having spontaneous labor and delivery without any known obstetrical or medical complications. Tissues were obtained in accordance with a protocol approved by the Institutional Review Board. Within 30 minutes, the placental tissues were dissected of decidua, chorionic plates and large fetal vessels on ice. The placental tissues were cut into small fragments (approximately 25 pieces having a total weight of approximately 1 g), rinsed free of blood by repeated washing with ice cold normal saline until clear in color, and the tissue fragments placed in a 3-ml tissue chamber, placed in a 37° C. water bath. […] This medium is hereafter referred to as Medium 199. […] Perifusion was performed for two hours prior to initiation of sample collection. In this fashion, all tissues were thoroughly washed and equilibrated. Samples were collected hourly, beginning at the start of the third hour, into 12×75 mm glass tubes containing 0.1 ml indomethacin and 1100 μg/ml dimethyl sulfoxide [DMSO]. It took approximately one hour for the input medium to pass through the perifusion tubing and chamber and to be collected in the sample tube, thus the dead volume of the system was approximately 1 ml. Collection of the effluent of the 20 chambers was done simultaneously, using an ISCO fraction collector Retriever III adapted with a 20-tube rack and manifold. The prostanoid release for a given chamber was expressed as the increase over the fourth-hour prostanoid release for that chamber. Because there may be differences in the amounts of blood vessels and connective tissue among placental explants, the release expressed per unit weight results in high variance between chambers. […] Thus, the release of each chamber was related to its functional competence at the time of treatment rather than its mass. The mean release for replicate chambers from a given placenta for each particular prostanoid in the presence of arachidonic acid or each of the various enzyme inhibitors was calculated and then the mean data for each of the three different placentas was averaged at each time point. Thus, each placenta was weighted equally in the statistical analyses. Two-way analysis of variance of the average response for each prostanoid for each dose of arachidonic acid or each enzyme inhibitor studied, at each time point, was performed. The normalized data were tested for homogeneity using Cohrna's Q test, and no significant deviation was found. Thus, for each prostanoid and each treatment, where there was a significant main effect or interaction, Dunnett's comparison test was applied to determine the point(s) of significant difference as compared to the control. P<0.05 was considered to be statistically significant.

[2] = tested on: human term placenta; assay: Effect of arachidonic acid on prostanoid release from perifused human term placental explants
Experimental: Radioimmunoassays were performed in a fashion similar to what has been previously described (Siler-Khodr et al., 1986, Biol. Reprod., 35:312) which is specifically incorporated herein for this purpose, with specific exception as noted below. A perifusion model (described in Examples 2 and 3) was employed to determine placental cell response. Media collected from the perifusion samples prepared from placental tissues were assayed. After an initial pilot study of the prostanoid release of each of the perifusion placental tissue media samples collected hourly, samples from hours 3, 4, 5, 6, 8 and 12 of the perifusion were chosen for assay and for data analysis. All the samples from a given perifusion (placenta) were determined in the same assay.
The effect of exogenous arachidonic acid on basal prostanoid release was studied by perifusing placental tissue from the beginning of the fifth hour of the perifusion, with Medium 199 containing arachidonic acid (0.2, 1.0 or 10 μg/ml). Arachidonic acid was dissolved in ethanol such that 0.02 ml ethanol per 100 ml of Medium 199 was needed to obtain these concentrations, and the resulting ethanol concentration was 0.02%. The control medium was also made to be 0.02% ethanol for valid comparison of the arachidonic acid parameter only. Four replicated chambers were perifused with control medium and each of the experimental arachidonic acid media. This experimental design was repeated using placental tissues from three different patients.
Briefly, term placenta were obtained and placed on ice immediately after vaginal delivery from patients having spontaneous labor and delivery without any known obstetrical or medical complications. Tissues were obtained in accordance with a protocol approved by the Institutional Review Board. Within 30 minutes, the placental tissues were dissected of decidua, chorionic plates and large fetal vessels on ice. The placental tissues were cut into small fragments (approximately 25 pieces having a total weight of approximately 1 g), rinsed free of blood by repeated washing with ice cold normal saline until clear in color, and the tissue fragments placed in a 3-ml tissue chamber, placed in a 37° C. water bath. Twenty replicate chambers were prepared and each perifused with Medium 199 containing 0.05% BSA, 100 U penicillin and 100 μg streptomycin per ml at a rate of 1 ml per hour for 12 hours. This medium is hereafter referred to as Medium 199. The influx medium was aerated with 95% air and 5% CO2 throughout the perifusion. Perifusion was performed for two hours prior to initiation of sample collection. In this fashion, all tissues were thoroughly washed and equilibrated. Samples were collected hourly, beginning at the start of the third hour, into 12×75 mm glass tubes containing 0.1 ml indomethacin and 1100 μg/ml dimethyl sulfoxide [DMSO]. It took approximately one hour for the input medium to pass through the perifusion tubing and chamber and to be collected in the sample tube, thus the dead volume of the system was approximately 1 ml. Collection of the effluent of the 20 chambers was done simultaneously, using an ISCO fraction collector Retriever III adapted with a 20-tube rack and manifold.
The prostanoid release for a given chamber was expressed as the increase over the fourth-hour prostanoid release for that chamber. Because there may be differences in the amounts of blood vessels and connective tissue among placental explants, the release expressed per unit weight results in high variance between chambers. […] Thus, the release of each chamber was related to its functional competence at the time of treatment rather than its mass.
The mean release for replicate chambers from a given placenta for each particular prostanoid in the presence of arachidonic acid or each of the various enzyme inhibitors was calculated and then the mean data for each of the three different placentas was averaged at each time point. […]

[3] = tested on: human term placenta; assay: Dose-related action of IGF-I on basal prostanoid production from perifused human term placenta
Experimental: The dose-related effect of IGF-I on placental prostanoids was studied with the perifusion system previously described herein. Normal term deliveries were perifused with a defined Medium 199 containing no phenol red nor exogenous hormonal factors other than 100μU/ml of insulin, estradiol (200 ng/ml), progesterone (4000 ng/ml) and dexamethasone (10^−8). These doses were chosen to emulate the normal term placental environment. Replicate chambers for the control (n=4) and treatment (n=3) explants for each placenta were made. Following a five-hour perifusion at 6 ml/hr with basal media, IGF-I (5, 10, 20, 40 or 80 ng/ml) was added to the triplicate chambers and sample collection continued every 30 minutes for another five hours. The average hormonal response for the replicate chambers of the control and the IGF-I treated explants was calculated and then the mean (±SEM) response for the different placentas with and without treatment was computed and the results compared. […] TxB2 was inhibited at even 10 ng/ml of IGF-I.

[4] = tested on: human term placenta; assay: IGF-I effect on prostanoid and hCG release from perifused human term placental explants
Experimental: Term placentas were obtained and processed as described herein. Seven replicate chambers were prepared and each perifused with Medium 199 containing 0.05% BSA, penicillin (100 U/ml), streptomycin (100 μg/ml), estradiol (200 ng/ml), progesterone (2000 ng/ml), dexamethasone (10^−8 M), and insulin (100 μU/ml), at a rate of 6 ml/hour for 10.5 hours. Steroids were first dissolved in ethanol at 10^−4M final concentration and taken to final dilution with BSA-containing medium. This medium is hereafter referred to as Medium 199. These concentrations of steroid were chosen because they are known by those in the obstetrical arts to simulate the intrauterine milieu in vivo in humans. The influx medium was aerated with 95% air and 5% CO2 throughout the perifusion. Perifusion at a rate of 6 ml/hr was performed for […] prior to initiation of sample collection. In this fashion, all tissues were thoroughly washed and equilibrated. Samples were collected every half-hour, beginning at the start of the fourth hour, into 12×75 mm glass tubes containing 0.1 ml indomethacin (1100 μg/ml dimethyl sulfoxide [DMSO]). Collection of the effluent of the seven chambers was done simultaneously, using an ISCO fraction collector Retriever III adapted with a rack having seven tubes and a manifold.
To study the effect of IGF-I on basal prostanoid release, ten minutes prior to the beginning of the fifth hour of the perifusion, Medium 199 in the experimental chambers was changed to Medium 199 containing IGF-I (10^−8 M). This dose of IGF-I was chosen from calculations of the inventor using the Km of the placental receptor for IGF-I. It took ten minutes for the input medium to pass through the perifusion tubing and chamber and to be collected in the sample tube. Three replicated chambers were perifused with experimental medium, whereas, in another four replicated chambers, the perifusion was continued with the control, Medium 199. This experimental design was repeated using placental tissues from three different patients each having a normal pregnancy.
Prostanoid recovery and stability was determined as described in Example 1. Prostanoid radioimmunoassay was also conducted as described in Example 1.
Hormonal values for a given chamber were normalized to the fifth-hour prostanoid or hCG release for that chamber, expressed as a percent release over the fifth-hour release. Because there may be differences in the amount of blood vessels and connective tissue among placental explants, the release expressed per unit weight results in high variance between chambers. […] Thus, the release of each chamber was related to its functional competence at the time of treatment rather than to its mass. The mean release for replicate chambers from a given placenta for each particular hormone in the presence of IGF-I at each time point was calculated and the mean data for each of the three different placentas were averaged at each time point. Thus, each placenta was weighed equally in the statistical analyses. Similar calculations were done for the controls as for the experimental chambers. For each hormone studied, these average normalized data were tested for homogeneity, using Bartlett's test, and if significant deviation was found, the data were log-transformed prior to statistical analysis. Two-way analysis of variance was used to determine if there was significant main effect or interaction.
In addition, the cumulative release for each hormone from each placenta for each treatment was calculated. One-way analysis of variance was used to test for statistical effects of treatment. The points of significant variation were determined using the Student-Newman-Keuls test.

[5] = arachidonic acid 10 μg/ml, within three hours of exposure

- effect on PGFM release vs control [1]: did not reduce
- effect on TxB2 release vs control [1]: did not reduce
- effect on 6-keto-PGF1α release vs control [1]: significant inhibition
- effect on PGE release vs control [1]: did not reduce
Molecule: O=C(O)CN(CCN(CC(=O)O)CC(=O)O)CC(=O)O [EDTA, ethylene diamino tetraacetic acid]

- effect on 6-keto-PGF1α release vs control [1]: significant inhibition
- effect on PGE release vs control [1]: inhibited
Molecule: CC(Cc1ccc(O)c(O)c1)C(C)Cc1ccc(O)c(O)c1 (centres unmarked) [NDGA, nordihydroguaiaretic acid]

Molecule: CCCCC/C=C\C/C=C\C/C=C\C/C=C\CCCC(=O)O [arachidonic acid]
- effect on prostanoid production ([2]; arachidonic acid 0.2 μg/ml): no significant effect
- effect on prostanoid production ([2]; arachidonic acid 1.0 μg/ml): no significant effect
- effect on PGE release [2, 5]: significant increase
- effect on PGF release [2, 5]: significant increase
- effect on 6-keto-PGF1α ([2]; arachidonic acid 0.2-10 μg/ml): no significant effect
- effect on PGFM ([2]; arachidonic acid 0.2-10 μg/ml): no significant effect
- effect on TxB2 ([2]; arachidonic acid 0.2-10 μg/ml): no significant effect

- effect on PGF release vs control ([1]; first hour of exposure): significant inhibition
Molecule: CCN(CC)CCCC(C)Nc1c2ccc(Cl)cc2nc2ccc(OC)cc12 (centres unmarked) [quinacrine]
- effect on PGFM release vs control [1]: no significant effect
- effect on TxB2 release vs control [1]: no significant effect
- effect on 6-keto-PGF1α release vs control [1]: no significant effect
- effect on PGE release vs control [1]: no significant effect

Molecule: Insulin like growth factor-I [IGF-I]
- effect on TxB2 ([3]; IGF-I 10 ng/ml): inhibited
- effect on PGF production ([3]; IGF-I 5-80 ng/ml): greatly reduced
- greatest inhibition of TxB2 production ([3]; IGF-I 10^−8 M): 70 % of the basal release
- effect on TxB2 production ([3]; IGF-I at each dose (5, 10, 20, 40 or 80 ng/ml)): statistically significant inhibition
- effect on PGE ([3]; high dose of IGF-I): small reduction
- molar concentration producing a selective pharmacological affect on human placental tissue ([3]; on the order of): ~10^−9 molar
- cumulative release of the other hormones studied (PGE, PGFM, 6-keto-PGF1α, hCG) vs control ([4]; IGF-I 10^−8 M): no significant change
- effect on PGE release ([4]; IGF-I 10^−8 M): not affected
- effect on release of hCG compared to controls ([4]; IGF-I 10^−8 M): did not affect
- hCG release ([4]; IGF-I 10^−8 M): 55 % of the fifth-hour release
- PGE release ([4]; IGF-I 10^−8 M treated tissues): 228 % of the fifth-hour release
- cumulative release of TxB2 vs control ([4]; IGF-I 10^−8 M, P<0.01): significant reduction
- cumulative release of PGF vs control ([4]; IGF-I 10^−8 M, P<0.05): significant reduction
- TxB2 release ([4]; IGF-I 10^−8 M, by the fifth hour of treatment): 85 % of the control's release
- PGF release ([4]; IGF-I 10^−8 M, by the fifth hour of treatment, normalized to fifth-hour release): 116%
- 6-keto-PGF1α release ([4]; IGF-I 10^−8 M, during the five hours): 146 % of the fifth-hour release
- effect on PGFM release ([4]; IGF-I 10^−8 M, five hours of perifusion): unchanged
- time to significant inhibition of TxB2 release ([4]; IGF-I 10^−8 M, following treatment): ≤ 150 min
- effect on release of 6-keto-PGF1α ([4]; IGF-I 10^−8 M, more than five hours): not significantly altered
- effect on release of PGF ([4]; IGF-I 10^−8 M, significant from the third hour): significantly (P<0.01) inhibited
